From BindingDB's records for doi:10.1111/cbdd.12836 (Korea Institute of Science and Technology, 2017)

Legend:
[1] = molecular target: RAF proto-oncogene serine/threonine-protein kinase (Homo sapiens, UniProt P04049); assay: In vitro Enzyme Assay; settings: pH 7.5; 25 °C
Experimental: (§1) Reaction Biology Corporation Kinase HotSpotSM service: In a final reactionvolume of 25 μL, kinase (5-10 mU) is incubated with 25 mM Tris pH 7.5, 0.02 mM ethylene glycol tetracetic acid (EGTA), 0.66 mg/mL myelin basic protein, […], and [γ33P-ATP] (specific activity approx. 500 c.p.m./pmol,concentration as required). The reaction is initiated by the addition of the Mg-ATP mix. After incubation for 40 min at room temperature, the reaction is stopped by the addition of 5 μL of a 3% phosphoric acid solution. About 10 μL ofthe reaction solution is then spotted onto a P30 filtermat and washed three times for 5 min in 75 mM phosphoric acid and once in methanol prior to drying and scintillation counting.

[2] = molecular target: Serine/threonine-protein kinase B-raf [V600E] (Homo sapiens, UniProt P15056, V600E); assay: In vitro Enzyme Assay; settings: pH 7.5; 25 °C
Experimental: as §1

Chain of RAF proto-oncogene serine/threonine-protein kinase (P04049 whole entry): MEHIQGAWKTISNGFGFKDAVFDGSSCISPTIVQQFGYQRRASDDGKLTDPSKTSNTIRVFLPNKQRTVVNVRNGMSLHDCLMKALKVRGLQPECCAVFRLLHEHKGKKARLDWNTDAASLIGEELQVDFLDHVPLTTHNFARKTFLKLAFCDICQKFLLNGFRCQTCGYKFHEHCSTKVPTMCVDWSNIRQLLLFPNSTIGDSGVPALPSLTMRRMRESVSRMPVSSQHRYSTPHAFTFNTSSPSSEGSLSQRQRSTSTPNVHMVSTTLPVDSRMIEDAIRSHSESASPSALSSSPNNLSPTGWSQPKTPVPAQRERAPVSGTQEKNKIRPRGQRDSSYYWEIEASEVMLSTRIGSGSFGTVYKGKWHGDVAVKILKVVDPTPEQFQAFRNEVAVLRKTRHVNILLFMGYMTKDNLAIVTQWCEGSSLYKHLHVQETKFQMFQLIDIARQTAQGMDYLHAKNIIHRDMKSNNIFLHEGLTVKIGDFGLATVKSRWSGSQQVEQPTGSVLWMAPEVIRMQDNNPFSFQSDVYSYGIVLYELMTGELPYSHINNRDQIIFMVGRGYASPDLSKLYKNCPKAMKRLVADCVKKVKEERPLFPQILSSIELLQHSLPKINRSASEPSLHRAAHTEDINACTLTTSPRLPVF
Chain of Serine/threonine-protein kinase B-raf [V600E] (P15056 2-766 V600E limits assumed): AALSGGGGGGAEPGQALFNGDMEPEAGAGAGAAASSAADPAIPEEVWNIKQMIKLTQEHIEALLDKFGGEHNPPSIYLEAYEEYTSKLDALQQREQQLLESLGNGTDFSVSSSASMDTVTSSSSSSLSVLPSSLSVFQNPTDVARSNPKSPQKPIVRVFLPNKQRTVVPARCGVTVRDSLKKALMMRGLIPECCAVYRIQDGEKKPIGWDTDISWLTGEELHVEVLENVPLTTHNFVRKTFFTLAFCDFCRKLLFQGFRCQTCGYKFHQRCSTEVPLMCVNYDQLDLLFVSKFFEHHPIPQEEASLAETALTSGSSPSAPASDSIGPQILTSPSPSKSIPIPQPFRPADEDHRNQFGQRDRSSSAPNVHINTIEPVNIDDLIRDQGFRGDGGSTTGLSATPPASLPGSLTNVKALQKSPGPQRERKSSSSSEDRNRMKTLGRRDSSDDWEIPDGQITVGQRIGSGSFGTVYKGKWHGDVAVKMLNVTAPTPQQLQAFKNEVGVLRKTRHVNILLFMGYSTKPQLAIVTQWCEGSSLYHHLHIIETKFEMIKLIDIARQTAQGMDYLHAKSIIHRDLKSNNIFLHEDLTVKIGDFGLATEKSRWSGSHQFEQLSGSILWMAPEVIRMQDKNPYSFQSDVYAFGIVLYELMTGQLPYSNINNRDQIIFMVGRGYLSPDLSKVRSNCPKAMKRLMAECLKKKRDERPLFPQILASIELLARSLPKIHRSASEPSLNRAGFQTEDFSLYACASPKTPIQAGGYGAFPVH

Compound	IC50 [1] [µM]	IC50 [2] [µM]
CNC(=O)c1cc(Oc2cccc3nc(Nc4cccc(C(C)(C)C)c4)ccc23)ccn1 [4-((2-((3-(Tert-butyl)phenyl)amino)quinolin-5-yl)oxy)-N-methylpicolinamide (6d)]	92.6	> 100
CNC(=O)c1cc(Oc2cccc3nc(Nc4ccc(Cl)c(C(F)(F)F)c4)ccc23)ccn1 [4-((2-((4-Chloro-3-(trifluoromethyl)phenyl)amino)quinolin-5-yl)oxy)-N-methylpicolinamide (6j)]	> 100	> 100
